Experimental data from patent publication EP4431115A1, “COMPOUND PHARMACEUTICAL PREPARATION CONTAINING OIL COMPONENT COMPRISING POLYOXYETHYLENE STRUCTURE” (CHUGAI SEIYAKU KABUSHIKI KAISHA, priority 2022, dated 2023).
Values after ≈ are worked out from the molar mass of the structure shown. Bridge positions count the residues as written; N and C are the ends. Square brackets hold non-standard residues; d marks the D form. Peptide text beside a SMILES is read from it. * marks the point of attachment. hPhe(3,5-F2-4-CF3) = N[C@@H](CCc1cc(F)c(C(F)(F)F)c(F)c1)C(=O)O; hPhe(3-Cl-4-CF3) = N[C@@H](CCc1ccc(C(F)(F)F)c(Cl)c1)C(=O)O; NMeGly(cPent) = CN[C@H](C(=O)O)C1CCCC1; NMeCha = CN[C@@H](CC1CCCCC1)C(=O)O; Hyp = O=C(O)[C@@H]1C[C@@H](O)CN1; NMeF = CN[C@@H](Cc1ccccc1)C(=O)O; NMeD = CN[C@@H](CC(=O)O)C(=O)O; NMeL = CN[C@@H](CC(C)C)C(=O)O; NMeA = CN[C@@H](C)C(=O)O; Piperidide = C1CCN(*)CC1; Ac5c = NC1(C(=O)O)CCCC1; Aze = O=C(O)[C@@H]1CCN1; Sar = CNCC(=O)O; tBu = CC(C)(C)*

Test: Evaluation of solubility of cyclic peptide compound in phosphate buffer (Example 3-3)
Format: physicochemical
Conditions: 50 mM phosphate buffer solution pH 6.5, 37°C, 22 to 24 hours
Method: Evaluation of the solubility of the cyclic peptide compound was performed. To lyophilized powder of the compound, a 50 mM phosphate buffer solution (PPB: Phosphate buffer, pH 6.5) was added, and after shaking (at 37°C, 1800 rpm, for 22 to 24 hours), the mixed solution was filtered through a filter, and the compound concentration of the filtrate was measured by LC/MS/MS. Solubility was calculated from the measured compound concentration. The solubilities of the compounds 3, 4, 6, 7, and 8 were 11 µg/mL, 1 µg/mL, 1 µg/mL, 15 µg/mL, and 5 µg/mL, respectively.

| Solubility | SMILES |
| --- | --- |
| 1 µg/mL (≈ 0.697 µM) | CC(C)C[C@@H]1NC(=O)[C@H](Cc2ccccc2)N(C)C(=O)[C@H](COC(C)(C)C)NC(=O)[C@H](Cc2ccccc2)N(C)C(=O)[C@H](C)N(C)C(=O)[C@H](CC(C)C)N(C)C(=O)[C@@H](C)NC(=O)C[C@@H](C(=O)N2CCCCC2)NC(=O)[C@H](Cc2ccccc2)N(C)C(=O)[C@H]([C@@H](C)O)NC(=O)[C@H](CC(C)C)N(C)C1=O [Compound 4] ([dA][NMeL][NMeA][NMeF]S(tBu)[NMeF]L[NMeL]T[NMeF]D-Piperidide; lactam N-11) |
| 1 µg/mL (≈ 0.688 µM) | CC[C@H](C)[C@@H]1NC(=O)[C@H](CC(C)C)N(C)C(=O)C[C@@H](C(=O)N2CCCCC2)N(C)C(=O)[C@H](C2CCCC2)N(C)C(=O)C2(CCCC2)NC(=O)[C@@H]2CCCN2C(=O)[C@H](CCc2ccc(C(F)(F)F)c(Cl)c2)NC(=O)CN(C)C(=O)[C@H](CC2CCCCC2)N(C)C(=O)[C@@H]2CCN2C(=O)[C@H](C)N(C)C1=O [Compound 6] ([NMeL]I[NMeA][Aze][NMeCha][Sar][hPhe(3-Cl-4-CF3)]P[Ac5c][NMeGly(cPent)][NMeD]-Piperidide; lactam N-11) |
| 5 µg/mL (≈ 3.43 µM) | CCO[C@@H]1C[C@H]2C(=O)NC3(CCCC3)C(=O)N(C)[C@@H](C3CCCC3)C(=O)N(C)[C@H](C(=O)N(C)C)CC(=O)N(C)[C@@H](CC(C)C)C(=O)N[C@@H]([C@@H](C)CC)C(=O)N(C)[C@@H](C)C(=O)N3CC[C@H]3C(=O)N(C)[C@@H](CC3CCCCC3)C(=O)N(C)CC(=O)N[C@@H](CCc3cc(F)c(C(F)(F)F)c(F)c3)C(=O)N2C1 [Compound 8] ([NMeL]I[NMeA][Aze][NMeCha][Sar][hPhe(3,5-F2-4-CF3)][Hyp](Et)[Ac5c][NMeGly(cPent)][NMeD]-NMe2; lactam N-11) |
